The source of these data is patent US20080153850A1, “Adamantyl Derivates as P2x7 Receptor Antagonists” (AstraZeneca AB, priority 2004, published 2008).

In one data set the target is T1, P2X7 receptor (Homo sapiens, UniProt Q99572).
T1 construct: 200 μl of a suspension of THP-1 cells; endogenous in cells; host or cells: THP-1 cells
T1 sequence (Q99572 1-595): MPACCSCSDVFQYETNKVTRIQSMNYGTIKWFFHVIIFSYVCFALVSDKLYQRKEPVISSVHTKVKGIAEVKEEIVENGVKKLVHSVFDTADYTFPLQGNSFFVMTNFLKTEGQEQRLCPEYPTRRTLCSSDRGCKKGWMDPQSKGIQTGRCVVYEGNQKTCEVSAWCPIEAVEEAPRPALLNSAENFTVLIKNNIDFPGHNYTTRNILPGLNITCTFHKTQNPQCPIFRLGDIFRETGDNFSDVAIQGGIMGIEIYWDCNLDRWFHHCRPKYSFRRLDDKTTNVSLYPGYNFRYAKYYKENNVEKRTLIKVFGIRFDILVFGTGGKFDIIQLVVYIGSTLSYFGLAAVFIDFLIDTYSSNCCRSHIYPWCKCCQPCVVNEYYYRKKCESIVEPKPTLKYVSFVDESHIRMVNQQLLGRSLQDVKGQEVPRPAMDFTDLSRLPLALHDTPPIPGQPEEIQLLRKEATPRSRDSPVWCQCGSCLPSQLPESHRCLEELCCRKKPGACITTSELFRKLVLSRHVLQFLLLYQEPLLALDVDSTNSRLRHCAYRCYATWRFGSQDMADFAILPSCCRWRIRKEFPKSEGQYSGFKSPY
Description: P2X7 receptor antagonist test: bbATP-induced ethidium bromide fluorescence in THP-1 cells. In kind it is cell-based. As to conditions: 10^-5M bbATP agonist, 10^-4M ethidium bromide, 37° C. one hour, negative log of concentration reducing bbATP agonist activity by 50%. The protocol:
Consequently, when the receptor is activated using bbATP in the presence of ethidium bromide (a fluorescent DNA probe), an increase in the fluorescence of intracellular DNA-bound ethidium bromide is observed. The increase in fluorescence can be used as a measure of P2X7 receptor activation and therefore to quantify the effect of a compound on the P2X7 receptor.
In this manner, each of the title compounds of the Examples was tested for antagonist activity at the P2X7 receptor. […] The plate was covered with a plastics sheet and incubated at 37° C. for one hour. The plate was then read in a Perkin-Elmer fluorescent plate reader, excitation 520 nm, emission 595 nm, slit widths: Ex 15 nm, Em 20 nm. For the purposes of comparison, bbATP (a P2X7 receptor agonist) and pyridoxal 5-phosphate (a P2X7 receptor antagonist) were used separately in the test as controls. From the readings obtained, a pIC50 figure was calculated for each test compound, this figure being the negative logarithm of the concentration of test compound necessary to reduce the bbATP agonist activity by 50%.
As for `O=C(O)c1ccc(-c2ccc(Cl)c(C(=O)NCC34CC5CC(CC(C5)C3)C4)c2)cc1` [Example 1, 4′-Chloro-3′-[[(tricyclo[3.3.1.1^3,7]dec-1-ylmethyl)amino]carbonyl]-[1,1′-biphenyl]-4-carboxylic acid], the concentration for half-maximal inhibition (IC50) (usually the point on the concentration scale where inhibition reaches its midpoint) is 316 nM.

Test system in another data set: not given
Experiment: not given
Details: not given
As for `O=C(NCC12CC3CC(CC(C3)C1)C2)c1cc(-c2cccnc2N2CCCC(C(=O)O)C2)ccc1Cl` (stereo not drawn) [Example 61, 1-[3-[4-Chloro-3-[[(tricyclo[3.3.1.1^3,7]dec-1-ylmethyl)amino]carbonyl]phenyl]-2-pyridinyl]-3-piperidinecarboxylic acid], the melting point (commonly the temperature, or range, at which the solid turns liquid) lay within 125 to 130 °C. `O=C(O)CNc1ncccc1-c1ccc(Cl)c(C(=O)NCC23CC4CC(CC(C4)C2)C3)c1` [Example 26, N-[3-[4-Chloro-3-[[(tricyclo[3.3.1.1^3,7]dec-1-ylmethyl)amino]carbonyl]phenyl]-2-pyridinyl]-glycine]: the melting point is 160 to 164 °C.

On to `O=C(NCC12CC3CC(CC(C3)C1)C2)c1cc(-c2nccnc2N2CCC(C(=O)O)CC2)ccc1Cl` [Example 34, 1-[3-[4-Chloro-3-[[(tricyclo[3.3.1.1^3,7]dec-1-ylmethyl)amino]carbonyl]phenyl]pyrazinyl]-4-piperidinecarboxylic acid], for which the melting point is 136 to 140 °C. As for `Cc1cnc(C(=O)O)c(-c2ccc(Cl)c(C(=O)NCC34CC5CC(CC(C5)C3)C4)c2)c1` [Example 64, 3-[4-Chloro-3-[[(tricyclo[3.3.1.1^3,7]dec-1-ylmethyl)amino]carbonyl]phenyl]-5-methyl-2-pyridinecarboxylic acid], the melting point fell in the range of 125 to 130 °C. Still for that read-out and setting: the result for `O=C(O)c1cccc(-c2ccc(Cl)c(C(=O)NCC34CC5CC(CC(C5)C3)C4)c2)c1` [Example 2, 4′-Chloro-3′-[[(tricyclo[3.3.1.1^3,7]dec-1-ylmethyl)amino]carbonyl]-[1,1′-biphenyl]-3-carboxylic acid] reads 255 to 257 °C.
